Test results as given in BindingDB's records for doi:10.1016/j.bmcl.2004.03.096 (The University of Newcastle, 2004).

What was measured:
[1] = Concentration required against dynamin-1 GTPase activity of sheep brain.
[2] = as above; remark: listed apart in the source
[3] = Concentration required against dynamin-1 GTPase activity of sheep brain; increased dynamin I GTPase activity at 30 uM.

Structure (SMILES)	IC50 [1] [µM]	IC50 [2] [µM]	IC50 [3] [µM]
CCCCCCCCCCCCCCN	14.9	8.74	–
NCCCCCCCCCCCCN [1,12-diaminododecane]	39.6	–	–
CCCCCCCCCCCCCCOC(CN)CN [2-Tetradecyloxy-propane-1,3-diammonium chloride]	7.37	–	–
CCCC/C=C\C/C=C\C/C=C\C/C=C\CCCC(=O)NCCF [(5Z,8Z,11Z,14Z)-Nonadeca-5,8,11,14-tetraenoic acid (2-fluoro-ethyl)-amide]	> 300	–	–
CCCC/C=C\C[C@@H](O)/C=C/C=C/C=C\[C@@H](O)CCCC(=O)O [(6Z,8E,10E,14Z)-(5S,12R)-5,12-Dihydroxy-nonadeca-6,8,10,14-tetraenoic acid]	–	–	> 300
CCCCCCCCCCCC[N+](C)(C)CC [Dodecyl-ethyl-dimethyl-ammonium; bromide]	10.1	–	–
CCCCCCCCCCCCCCN [Tetradecylamine]	20.2	–	–
CCCCCCCCCCCCCCCC[P+](CCCC)(CCCC)CCCC [Tributyl-hexadecyl-phosphonium; bromide]	10.2	–	–
CCCCCCCCCCCCC(=O)OCCN(C)C [Tridecanoic acid 2-dimethylamino-ethyl ester]	23	–	–
CCCCCCCCCCCCC(=O)NCCN(C)C [Tridecanoic acid (2-dimethylamino-ethyl)-amide]	8.85	–	–

Further lines, results first:

IC50 [1] [µM]	IC50 [2] [µM]	IC50 [3] [µM]	Structure (SMILES)
9.36	–	–	CCCCCCCCCCCCCC[N+](C)(C)CCO [(2-Hydroxy-ethyl)-dimethyl-tetradecyl-ammonium; bromide]
8.02	–	–	CCCCCCCCCCCCCC[N+](C)(C)CCCC [Butyl-dimethyl-tetradecyl-ammonium; bromide]
8.85	–	–	CCCCCCCCCCCCCC[N+](C)(C)CCC [Dimethyl-propyl-tetradecyl-ammonium; bromide]
9.62	–	–	CCCCCCCCCCCCCCCC[N+](CC)(CC)CC [Triethyl-hexadecyl-ammonium; bromide]
8.45	–	–	CCCCCCCCCCCCCC[N+](CC)(CC)CC [Triethyl-tetradecyl-ammonium; bromide]
